Inconclusive results and toxic doses are left out. Peptide text beside a SMILES is read from it. * marks the point of attachment. Cbz = O=C(OCc1ccccc1)*; OtBu = CC(C)(C)O*
System: P388 leukemia ip, CD2F1 mice, survival T/C
Assay: NCI In Vivo Anticancer Drug Screen. Data for tumor model P388 Leukemia (intraperitoneal) in CD2F1 (CDF1) mice
Settings: endpoint: median survival time, higher = longer survival
Outline: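 Mice carrying the transplanted tumor received test compound or vehicle. Survival was recorded in each group, and the value is the treated-group measurement divided by that of the vehicle-treated control group.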

[1] = dose: 50.0 mg/kg/injection, schedule: Q01DX005 (ip), vehicle: Klucel (hydroxypropylcellulose) (HPC)
[2] = dose: 100.0 mg/kg/injection, schedule: Q01DX005 (ip), vehicle: Klucel (hydroxypropylcellulose) (HPC)
[3] = dose: 200.0 mg/kg/injection, schedule: Q01DX005 (ip), vehicle: Klucel (hydroxypropylcellulose) (HPC)
[4] = dose: 100.0 mg/kg/injection, schedule: Q04DX003 (ip), vehicle: saline

`C[C@H]1C/C=C/[C@H]2[C@@H]3O[C@]3(C)[C@@H](C)[C@H]3[C@H](Cc4ccccc4)NC(=O)[C@]32OC(=O)O/C=C/[C@@](C)(O)C1=O` was tested, and the T/C (dose: 1.25 mg/kg/injection, schedule: Q01DX009 (ip), vehicle: Klucel (hydroxypropylcellulose) (HPC)) was 99 % of control, the T/C (dose: 2.5 mg/kg/injection, schedule: Q01DX009 (ip), vehicle: Klucel (hydroxypropylcellulose) (HPC)) was 94 % of control and the T/C (dose: 5.0 mg/kg/injection, schedule: Q01DX009 (ip), vehicle: Klucel (hydroxypropylcellulose) (HPC)) was 97 % of control. For the same molecule, the T/C (dose: 10.0 mg/kg/injection, schedule: Q01DX009 (ip), vehicle: Klucel (hydroxypropylcellulose) (HPC)) was 88 % of control.
For `Cc1ccc2[nH]c(N(C)C)nc2c2nc(Cl)nc1-2`, the T/C (dose: 8.25 mg/kg/injection, schedule: Q01DX005 (ip), vehicle: saline) was 108 % of control, the T/C (dose: 16.5 mg/kg/injection, schedule: Q01DX005 (ip), vehicle: saline) was 103 % of control and the T/C (dose: 33.0 mg/kg/injection, schedule: Q01DX005 (ip), vehicle: saline) was 100 % of control. For the same molecule, the T/C (dose: 66.0 mg/kg/injection, schedule: Q01DX005 (ip), vehicle: saline) was 97 % of control.
For `CC1=CC(=C2C(=O)c3ccccc3C2=O)N(CCN2CCCCC2)C=C1`, the T/C [1] was 93 % of control, the T/C [2] was 102 % of control and the T/C [3] was 93 % of control.
With `COC(=O)NC1(NC(=O)OC)NC(=O)c2cc(OC)c(OC)c(OC)c2N1` the T/C (dose: 25.0 mg/kg/injection, schedule: Q01DX005 (ip), vehicle: saline + alcohol) was 102 % of control, the T/C (dose: 50.0 mg/kg/injection, schedule: Q01DX005 (ip), vehicle: saline + alcohol) was 98 % of control and the T/C (dose: 100.0 mg/kg/injection, schedule: Q01DX005 (ip), vehicle: saline + alcohol) was 100 % of control. The T/C (dose: 200.0 mg/kg/injection, schedule: Q01DX005 (ip), vehicle: saline + alcohol) was 93 % of control.
With `CCCCC(NC(C)(C)C)c1ccccc1` (stereo unspecified) the T/C [4] was 97 % of control, the T/C (dose: 200.0 mg/kg/injection, schedule: Q04DX003 (ip), vehicle: saline) was 101 % of control and the T/C (dose: 400.0 mg/kg/injection, schedule: Q04DX003 (ip), vehicle: saline) was 102 % of control.
For `O=C(Nc1ccc(C(=O)Nc2ccc(C3=NCCCN3)cc2)cc1)Nc1ccc(C2=NCCCN2)cc1`, the T/C (dose: 6.25 mg/kg/injection, schedule: Q04DX003 (ip), vehicle: saline with Tween-80) was 108 % of control, the T/C (dose: 12.5 mg/kg/injection, schedule: Q01DX009 (ip), vehicle: saline with Tween-80) was 204 % of control and the T/C (dose: 25.0 mg/kg/injection, schedule: Q01DX009 (ip), vehicle: saline with Tween-80) was 122 % of control. For the same molecule, the T/C (dose: 25.0 mg/kg/injection, schedule: Q04DX003 (ip), vehicle: saline with Tween-80) was 150 % of control and the T/C [4] was 90 % of control.
`O=C1CSC(=Nc2ccc(F)cc2F)N1Cc1cccs1` was tested, and the T/C (dose: 60.0 mg/kg/injection, schedule: Q01DX005 (ip), vehicle: Klucel (hydroxypropylcellulose) (HPC)) was 102 % of control, the T/C (dose: 120.0 mg/kg/injection, schedule: Q01DX005 (ip), vehicle: Klucel (hydroxypropylcellulose) (HPC)) was 113 % of control and the T/C (dose: 240.0 mg/kg/injection, schedule: Q01DX005 (ip), vehicle: Klucel (hydroxypropylcellulose) (HPC)) was 103 % of control.
`C[n+]1c(-c2ccc(/C=N/NC(=O)C(=O)N/N=C/c3ccc(-c4cn5ccccc5[n+]4C)cc3)cc2)cn2ccccc21` was tested, and the T/C (dose: 7.5 mg/kg/injection, schedule: Q01DX005 (ip), vehicle: saline) was 109 % of control and the T/C (dose: 15.0 mg/kg/injection, schedule: Q01DX005 (ip), vehicle: saline) was 119 % of control.
In the case of `O=C(NC(Cc1ccc(Cl)cc1)C(=O)O)c1ccc(I)cc1` (stereo unspecified), the T/C [1] is reported as 101 % of control, the T/C [2] is reported as 101 % of control and the T/C [3] is reported as 94 % of control.
`COC(=O)C(CCC(=O)OC(C)(C)C)NC(=O)C(NC(=O)OCc1ccccc1)C(C)C` (stereo not drawn) (Cbz-Val-Glu(OtBu)-OMe; configuration not given here) was tested, and the T/C (dose: 100.0 mg/kg/injection, schedule: Q04DX003 (ip), vehicle: saline with Tween-80) was 110 % of control, the T/C (dose: 200.0 mg/kg/injection, schedule: Q04DX003 (ip), vehicle: saline with Tween-80) was 120 % of control and the T/C (dose: 400.0 mg/kg/injection, schedule: Q04DX003 (ip), vehicle: saline with Tween-80) was 90 % of control.
For `CC(=O)Nc1cc(Cl)cc2c1-c1ccc(Cl)cc1C2=O`, the T/C [1] was 88 % of control and the T/C [2] was 94 % of control.
`COC(=O)C1C(NCc2ccccc2)=CC(C)(C)C(C(=O)OC)C1c1ccccc1` (stereo unspecified) was tested, and the T/C [1] was 103 % of control, the T/C [2] was 100 % of control and the T/C [3] was 97 % of control.
`O=C(Nc1nnc(-c2ccccc2)s1)c1cc(=O)c2cc(Cl)ccc2o1` was tested, and the T/C [1] was 114 % of control, the T/C [2] was 98 % of control and the T/C [3] was 106 % of control.
With `Cc1csc2c3ccccc3cc(=O)n12` the T/C (dose: 12.5 mg/kg/injection, schedule: Q01DX005 (ip), vehicle: Klucel (hydroxypropylcellulose) (HPC)) was 95 % of control, the T/C (dose: 25.0 mg/kg/injection, schedule: Q01DX005 (ip), vehicle: Klucel (hydroxypropylcellulose) (HPC)) was 99 % of control and the T/C [1] was 100 % of control. The T/C (dose: 100.0 mg/kg/injection, schedule: Q01DX001 (ip), vehicle: Klucel (hydroxypropylcellulose) (HPC)) was 98 % of control.

Source: PubChem BioAssay AID330 (DTP/NCI, 2004)
